From patent US20240376081A1, “POLYMORPH AND APPLICATION OF PYRIMIDINE DERIVATIVE AND PHARMACEUTICALLY ACCEPTABLE SALT THEREOF” (SHANGHAI HAIYAN PHARMACEUTICAL TECHNOLOGY CO., LTD., priority 2021, published 2024)
Where two headings read alike, the source gives them in different places.

How the values were obtained:
[1] = In vivo pharmacokinetics in mice (LC/MS/MS plasma concentration); details: male, ICR, mouse; for clearance: read-out: Clearance CLz
From the text: The LC/MS/MS method was applied to determine the medicament concentration in plasma at different moments after intravenous administration and oral gavage administration of Compound X of the present application in mice, respectively, to study the pharmacokinetic behavior of Compound X of the present application in mice, and to evaluate its pharmacokinetic characteristics.
Test animals: healthy adult male ICR mice (weighing from 25 g to 40 g, 12 mice, free to drink and eat in the intravenous injection group, fasted overnight in the gavage group, and free to drink and eat 4 h after the administration of the medicament), supplied by Beijing Viton Lever Laboratory Animal Technology Co., Ltd.
Mode of administration and dosage: animals meeting the experimental requirements were selected and weighed and labeled before administration. ICR mice were administered by tail vein (2 mg/kg, 5% DMSO, pH 4.5 20% Captisol) and by gavage (10 mg/kg, 5% DMSO, pH 4.5 20% Captisol).
Blood sample collection: Prior to blood sample collection, mice were bound and approximately […] of blood was collected from the jugular vein of each administered mouse at predetermined blood collection time points (i.v. administration: Blood was collected at 9 time points: 0.083 h, 0.25 h, 0.5 h, 1 h, 2 h, 4 h, 6 h, 7.5 h, and 24 h, respectively, after administration; and gavage administration: Blood was collected at 9 time points: 0.083 h, 0.25 h, 0.5 h, 1 h, 2 h, 4 h, 6 h, 7.5 h, and 24 h, respectively, after administration). The blood was transferred to 1.5 mL tubes preloaded with K2EDTA, and the blood plasma was separated by centrifugation for 4 min (8,000 rpm, 4° C.), which was performed within 15 min after the collection. All samples were stored in a refrigerator at −20° C. until sample analysis. LC/MS/MS method was applied to determine the medicament concentration.

[2] = test system: mouse colon cancer MC38(#22)-hpd-L1; assay: In vivo potency assay in colon cancer MC38(#22)-hpd-L1 tumor bearing mice; set-up: species or system C57BL/6 mice; details: twice a day for 22 days
Protocol: Experimental Protocol: In this test example, tumor bearing mice subcutaneously transplanted with mouse colon cancer MC38(#22)-hpd-L1 was investigated. After administration of Compound X of the present application via the oral administration, the in vivo efficacy of Compound X on colon cancer MC38(#22)-hpd-L1 tumor bearing mice were tested.
Experimental materials: C57BL/6 mice (female); mouse colon cancer MC38(#22)-hpd-L1 cells (Shanghai Jiao Tong University cell bank), cultured in vitro in monolayer, culture conditions were using RPMI-1640 medium containing 10/% fetal bovine serum, 37° C. 5% CO2 incubator. The cells were passaged by conventional digestion treatment with trypsin-EDTA. When the cells were in the exponential growth phase with 80% to 90% saturation, the cells were harvested and counted.
Compound Preparation: The compound was weighed and added to the solvent (40% captisol in acetate buffer, pH 3.8) to prepare a 10 mg/mL sample. 75 μL of Tecentriq solution (60 mg/mL) was taken and added to 8.925 mL of phosphate buffer solution (PBS) to make a 0.5 mg/mL phosphate solution (phosphate buffer).
Experimental Operation: Cells were resuspended in the phosphate buffer at a density of 5×10^6 cells/mL. 0.1 mL of PBS (containing 5×10^5 MC38(#22)-hpd-L1 cells) was subcutaneously inoculated into the right back of each mouse. On the day of inoculation, the mice were randomized according to their body weights into groups of 10 mice each, and dosing was begun twice a day for 22 days. The animals were weighed daily and monitored for health throughout the experimental period. Tumor diameters were measured twice a week using vernier calipers.
Tumor volume V was calculated as V=0.5×a×b^2, with a and b denoting the long and short diameters of the tumor, respectively.
The tumor suppression efficacy of the compound was evaluated by relative tumor proliferation rate T/C (%). Relative tumor proliferation rate T/C (%)=Vt/Vc×100% (Vt: mean tumor volume of the treatment group; Vc: mean tumor volume of the negative control group). Vt and Vc were data taken from the same day.

A2A receptor = A2A receptor (Homo sapiens (Human), UniProt P29274); assay: Inhibitory activity on A2A receptor, cAMP assay in CHO-K1/ADORA2A/Gα15 cells (Test Example 1); assay type: cell-based; details: NECA 50 nM
Sequence of A2A receptor (P29274 whole entry): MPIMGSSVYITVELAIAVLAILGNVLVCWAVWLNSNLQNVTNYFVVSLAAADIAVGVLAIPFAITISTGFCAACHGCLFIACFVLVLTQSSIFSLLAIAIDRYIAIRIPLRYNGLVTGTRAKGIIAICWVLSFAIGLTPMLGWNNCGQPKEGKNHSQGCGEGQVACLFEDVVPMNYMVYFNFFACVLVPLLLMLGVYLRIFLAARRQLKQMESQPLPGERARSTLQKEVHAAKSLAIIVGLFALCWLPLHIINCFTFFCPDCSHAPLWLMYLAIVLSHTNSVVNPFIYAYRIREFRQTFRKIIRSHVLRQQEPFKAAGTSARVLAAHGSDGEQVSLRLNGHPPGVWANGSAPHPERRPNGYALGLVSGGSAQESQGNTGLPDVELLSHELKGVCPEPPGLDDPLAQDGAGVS
Protocol: (§1) CHO-K1/ADORA2A/Gα15 (GenScript, M00246) and CHO-K1/ADORA2B/Gα15 (GenScript, M00329) cells were cultured in Ham's F-12 (Gibco, 31765092) medium with medium conditions containing 10% FBS, 200 μg/mL Zeocin (bleomycin) and 100 μg/mL Hygromycin B (thaumatin B) or 10% FBS, 400 μg/mL G418 and 100 μg/mL Hygromycin B. Details of the culture conditions are described in the corresponding instructions.

A2B receptor = A2B receptor (Homo sapiens (Human), UniProt P29275); assay: Inhibitory activity on A2B receptor, cAMP assay in CHO-K1/ADORA2B/Gα15 cells (Test Example 1); assay type: cell-based; details: NECA 10 nM
Sequence of A2B receptor (P29275 whole entry): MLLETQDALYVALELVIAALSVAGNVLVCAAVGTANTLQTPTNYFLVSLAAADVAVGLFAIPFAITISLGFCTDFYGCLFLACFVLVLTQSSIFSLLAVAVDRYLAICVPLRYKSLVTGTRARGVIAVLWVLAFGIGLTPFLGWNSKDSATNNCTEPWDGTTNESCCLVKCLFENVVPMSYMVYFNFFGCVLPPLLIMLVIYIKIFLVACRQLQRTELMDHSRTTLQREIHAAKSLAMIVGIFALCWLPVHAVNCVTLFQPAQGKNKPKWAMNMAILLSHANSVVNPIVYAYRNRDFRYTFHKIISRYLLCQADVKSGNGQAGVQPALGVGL
Protocol: as §1

[3] = Dynamic Vapor Sorption (DVS); assay type: physicochemical
[4] = Mixing and shaking in solvents, XRPD test; assay type: physicochemical
From the text: […] After centrifugation, the supernatant was discarded, and the solids were placed in an oven to dryness and subjected to the XRPD test.

[5] = Crystal competition experiment, XRPD; assay type: physicochemical; details: mixed forms I, IV, V, VI, VII shaken in different solvents for 24 h
Protocol: In order to detect the stablest crystal form of Compound X, crystalline competition experiments were carried out. 10 mg of free alkali crystal I, free alkali crystal IV, free alkali crystal form V, free alkali crystal form VI, and free alkali crystal form VII were weighed, respectively, and mixed thoroughly. 20 mg of the mixed crystal was weighed in a glass vial, to which 1 mL of solvent in Table 14 was added respectively, and the resultant was mixed and shaken at room temperature for 24 h, and centrifugated. The precipitate was taken, dried and then measured by XRPD.

[6] = Stability experiments of free alkali crystal form I, XRPD; assay type: physicochemical; details: 40° C., 75% RH, lid open; 1 week, 2 weeks, 1 month, 2 months, 4 months
From the text: Samples were taken at 1 week, 2 weeks, 1 month, 2 months, and 4 months for XRPD test, respectively.

[7] = Differential scanning calorimetry (DSC), crystal form stability; assay type: physicochemical; details: may be transformed into free alkali crystal form I during warming up
From the text: As one of the embodiments, DSC plots in some embodiments of the present application were collected on a DISCOVERY DSC25 differential scanning calorimeter with the test parameters shown in Table 11.

[8] = intravenous (tail vein) 2 mg/kg, read-out: Area under the curve AUC0-t
[9] = intravenous (tail vein) 2 mg/kg
[10] = po, gavage 10 mg/kg, read-out: Area under the curve AUClast

Cc1c(C#N)cccc1-c1cc(-c2cn(Cc3cccc(C(C)(C)O)n3)nn2)nc(N)n1 [Compound D1, reference compound]
AUC(0-t) [1, 8]: 1650 ng·h/mL
clearance [1, 9]: 19 mL/min/kg
Cmax ([1]; po, gavage 10 mg/kg): 5960 ng/mL
AUC(0-t) [1, 10]: 10300 ng·h/mL
Relative tumor proliferation rate T/C (%) ([2]; 100 mg/kg oral): 75.8%
Tumor volume ([2]; 100 mg/kg oral): 902 mm^3

Cc1c(C#N)cccc1-c1nc(N)c(F)c(-c2cn(Cc3cccc(C(C)(C)O)n3)nn2)n1 [Compound X, 3-(4-amino-5-fluoro-6-(1-((6-(2-hydroxypropan-2-yl)pyridin-2-yl)methyl)-1H-1,2,3-triazol-4-yl)pyrimidin-2-yl)-2-methylbenzonitrile]
IC50 (A2A receptor): 0.001 mM
IC50 (A2B receptor): 0.003 mM
AUC(0-t) [1, 8]: 2250 ng·h/mL
clearance [1, 9]: 14.7 mL/min/kg
Cmax ([1]; po, gavage 10 mg/kg): 8730 ng/mL
AUC(0-t) [1, 10]: 10400 ng·h/mL
Relative tumor proliferation rate T/C (%) ([2]; 10 mg/kg oral): 75.5%
Tumor volume ([2]; 10 mg/kg oral): 899 mm^3
Relative tumor proliferation rate T/C (%) ([2]; 30 mg/kg oral): 34.0%
Tumor volume ([2]; 30 mg/kg oral): 405 mm^3
Relative tumor proliferation rate T/C (%) ([2]; 100 mg/kg oral): 24.0%
Tumor volume ([2]; 100 mg/kg oral): 286 mm^3

Cc1c(C#N)cccc1-c1nc(N)c(F)c(-c2cn(Cc3cccc(C(C)(C)O)n3)nn2)n1 [free alkali crystal form I, 3-(4-amino-5-fluoro-6-(1-((6-(2-hydroxypropan-2-yl)pyridin-2-yl)methyl)-1H-1,2,3-triazol-4-yl)pyrimidin-2-yl)-2-methylbenzonitrile]
hygroscopicity ([3]; DVS, 0% to 80% RH at 25° C.): almost no hygroscopicity
change in mass due to absorption ([3]; relative humidity from 0% to 80% RH at 25° C.): less than 0.2%
Crystal form after mixing and shaking ([4]; 50% Ethanol, 50° C., 1 day): Crystal form I
Crystal form after mixing and shaking ([4]; 50% Ethanol, RT, 1 day): Crystal form I
Crystal form after mixing and shaking ([4]; 50% Ethanol, RT, 7 days): Crystal form I
Crystal form after mixing and shaking ([4]; Ethanol, 50° C., 1 day): Crystal form I
Crystal form after mixing and shaking ([4]; Ethanol, RT, 1 day): Crystal form I
Crystal form after mixing and shaking ([4]; Ethanol, RT, 7 days): Crystal form I
Crystal form after mixing and shaking ([4]; Ethyl acetate, 50° C., 1 day): Crystal form I
Crystal form after mixing and shaking ([4]; Ethyl acetate, RT, 1 day): Crystal form I
Crystal form after mixing and shaking ([4]; Ethyl acetate, RT, 7 days): Crystal form I
Crystal form after mixing and shaking ([4]; Isopropanol, 50° C., 1 day): Crystal form I
Crystal form after mixing and shaking ([4]; Isopropanol, RT, 1 day): Crystal form I
Crystal form after mixing and shaking ([4]; Isopropanol, RT, 7 days): Crystal form I
Crystal form after mixing and shaking ([4]; Methyl tert-butyl ether, 50° C., 1 day): Crystal form I
Crystal form after mixing and shaking ([4]; Methyl tert-butyl ether, RT, 1 day): Crystal form I
Crystal form after mixing and shaking ([4]; Methyl tert-butyl ether, RT, 7 days): Crystal form I
Crystal form after mixing and shaking ([4]; Water, 50° C., 1 day): Crystal form I
Crystal form after mixing and shaking ([4]; Water, RT, 1 day): Crystal form I
Crystal form after mixing and shaking ([4]; Water, RT, 7 days): Crystal form I
change of crystal form after mixing and shaking ([4]; any of the seven solvents shown): did not change
Crystal form after mixing and shaking ([4]; n-Heptane, 50° C., 1 day): Crystal form I
Crystal form after mixing and shaking ([4]; n-Heptane, RT, 1 day): Crystal form I
Crystal form after mixing and shaking ([4]; n-Heptane, RT, 7 days): Crystal form I
stablest crystal form determined by competition [5]: stable crystal form
physical stability (XRPD) [6]: physically stable

Cc1c(C#N)cccc1-c1nc(N)c(F)c(-c2cn(Cc3cccc(C(C)(C)O)n3)nn2)n1 [free alkali crystal form IV, 3-(4-amino-5-fluoro-6-(1-((6-(2-hydroxypropan-2-yl)pyridin-2-yl)methyl)-1H-1,2,3-triazol-4-yl)pyrimidin-2-yl)-2-methylbenzonitrile]
crystal form stability from DSC plot [7]: sub-stable crystal form
